Laboratory results reported in PubChem BioAssay (NCI).
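Briefly, cells in 96-well plates were exposed to five compound concentrations for 48 h, and endpoints were estimated by linear interpolation. TGI marks complete inhibition of growth.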

How the values were obtained:
Test in all cases: NCI-60 cell line screen, 48 h
KM20L2 colon = system: KM20L2 colon
LOX IMVI melanoma = system: LOX IMVI melanoma
A498 renal = system: A498 renal
UACC-257 melanoma = system: UACC-257 melanoma
K-562 leukemia = system: K-562 leukemia
RPMI-8226 leukemia = system: RPMI-8226 leukemia
HCT-15 colon = system: HCT-15 colon
COLO 205 colon = system: COLO 205 colon
HT29 colon = system: HT29 colon
OVCAR-4 ovarian = system: OVCAR-4 ovarian
SK-MEL-5 melanoma = system: SK-MEL-5 melanoma
SNB-78 CNS = system: SNB-78 CNS
SK-MEL-28 melanoma = system: SK-MEL-28 melanoma
HOP-62 NSCLC = system: HOP-62 NSCLC
OVCAR-8 ovarian = system: OVCAR-8 ovarian
OVCAR-3 ovarian = system: OVCAR-3 ovarian
CAKI-1 renal = system: CAKI-1 renal
IGROV1 ovarian = system: IGROV1 ovarian
HOP-18 NSCLC = system: HOP-18 NSCLC
OVCAR-5 ovarian = system: OVCAR-5 ovarian
HOP-92 NSCLC = system: HOP-92 NSCLC
MOLT-4 leukemia = system: MOLT-4 leukemia
XF 498 CNS = system: XF 498 CNS
NCI-H23 lung = system: NCI-H23 lung
U251 CNS = system: U251 CNS
UACC-62 melanoma = system: UACC-62 melanoma
A549 NSCLC = system: A549 NSCLC
UO-31 renal = system: UO-31 renal
SNB-75 CNS = system: SNB-75 CNS
DMS 273 small cell lung = system: DMS 273 small cell lung
DLD-1 colon = system: DLD-1 colon
SF-295 CNS = system: SF-295 CNS
SNB-19 CNS = system: SNB-19 CNS
M19-MEL melanoma = system: M19-MEL melanoma
LXFL 529 NSCLC = system: LXFL 529 NSCLC
786-0 renal = system: 786-0 renal
CCRF-CEM leukemia = system: CCRF-CEM leukemia
HL-60(TB) leukemia = system: HL-60(TB) leukemia
MALME-3M melanoma = system: MALME-3M melanoma
NCI-H226 lung = system: NCI-H226 lung
DMS 114 small cell lung = system: DMS 114 small cell lung
HCT-116 colon = system: HCT-116 colon
EKVX NSCLC = system: EKVX NSCLC
HCC-2998 colon = system: HCC-2998 colon
M14 melanoma = system: M14 melanoma
ACHN renal = system: ACHN renal
SK-OV-3 ovarian = system: SK-OV-3 ovarian
SF-268 CNS = system: SF-268 CNS
KM12 colon = system: KM12 colon
SK-MEL-2 melanoma = system: SK-MEL-2 melanoma
TK-10 renal = system: TK-10 renal
SW-620 colon = system: SW-620 colon
SN12C renal = system: SN12C renal
NCI-H460 lung = system: NCI-H460 lung
NCI-H522 lung = system: NCI-H522 lung
DU-145 prostate = system: DU-145 prostate
MDA-N = system: MDA-N
T-47D breast = system: T-47D breast
PC-3 prostate = system: PC-3 prostate
NCI/ADR-RES ovarian = system: NCI/ADR-RES ovarian
MDA-MB-231 breast = system: MDA-MB-231 breast
BT-549 breast = system: BT-549 breast
RXF 393 renal = system: RXF 393 renal
MCF7 breast = system: MCF7 breast
HS 578T breast = system: HS 578T breast
MDA-MB-435 = system: MDA-MB-435
SF-539 CNS = system: SF-539 CNS
SR leukemia = system: SR leukemia

Structure (SMILES): C=CCOC(=O)C1CCC(=O)N1C(=O)C(Cl)Cl (stereo not drawn)
- TGI (KM20L2 colon): > 100 µM
- TGI (LOX IMVI melanoma): > 100 µM
- TGI (A498 renal): > 100 µM
- TGI (UACC-257 melanoma): > 100 µM
- TGI (K-562 leukemia): > 100 µM
- TGI (RPMI-8226 leukemia): > 100 µM
- TGI (HCT-15 colon): > 100 µM
- TGI (COLO 205 colon): > 100 µM
- TGI (HT29 colon): > 100 µM
- TGI (OVCAR-4 ovarian): > 100 µM
- TGI (SK-MEL-5 melanoma): > 100 µM
- TGI (SNB-78 CNS): > 100 µM
- TGI (SK-MEL-28 melanoma): > 100 µM
- TGI (HOP-62 NSCLC): > 100 µM
- TGI (OVCAR-8 ovarian): > 100 µM
- TGI (OVCAR-3 ovarian): > 100 µM
- TGI (CAKI-1 renal): > 100 µM
- TGI (IGROV1 ovarian): > 100 µM
- TGI (HOP-18 NSCLC): > 100 µM
- TGI (OVCAR-5 ovarian): > 100 µM
- TGI (HOP-92 NSCLC): > 100 µM
- TGI (MOLT-4 leukemia): > 100 µM
- TGI (XF 498 CNS): 33.2 µM
- TGI (NCI-H23 lung): > 100 µM
- TGI (U251 CNS): > 100 µM
- TGI (UACC-62 melanoma): > 100 µM
- TGI (A549 NSCLC): > 100 µM
- TGI (UO-31 renal): > 100 µM
- TGI (SNB-75 CNS): > 100 µM
- TGI (DMS 273 small cell lung): > 100 µM
- TGI (DLD-1 colon): > 100 µM
- TGI (SF-295 CNS): > 100 µM
- TGI (SNB-19 CNS): > 100 µM
- TGI (M19-MEL melanoma): > 100 µM
- TGI (LXFL 529 NSCLC): > 100 µM
- TGI (786-0 renal): > 100 µM
- TGI (CCRF-CEM leukemia): > 100 µM
- TGI (HL-60(TB) leukemia): > 100 µM
- TGI (MALME-3M melanoma): > 100 µM
- TGI (NCI-H226 lung): > 100 µM
- TGI (DMS 114 small cell lung): > 100 µM
- TGI (HCT-116 colon): > 100 µM
- TGI (EKVX NSCLC): > 100 µM
- TGI (HCC-2998 colon): > 100 µM
- TGI (M14 melanoma): > 100 µM
- TGI (ACHN renal): > 100 µM
- TGI (SK-OV-3 ovarian): > 100 µM
- TGI (SF-268 CNS): > 100 µM
- TGI (KM12 colon): > 100 µM
- TGI (SK-MEL-2 melanoma): > 100 µM
- TGI (TK-10 renal): > 100 µM
- TGI (SW-620 colon): > 100 µM
- TGI (SN12C renal): > 100 µM
- TGI (NCI-H460 lung): > 100 µM
- TGI (NCI-H522 lung): > 100 µM

Structure (SMILES): COc1cccc2c1C(=O)OC2c1cccc2ccccc12 (stereo not drawn)
- TGI (DU-145 prostate): > 100 µM
- TGI (KM20L2 colon): > 100 µM
- TGI (LOX IMVI melanoma): > 100 µM
- TGI (A498 renal): > 100 µM
- TGI (UACC-257 melanoma): > 100 µM
- TGI (MDA-N): > 100 µM
- TGI (K-562 leukemia): > 100 µM
- TGI (RPMI-8226 leukemia): > 100 µM
- TGI (HCT-15 colon): > 100 µM
- TGI (COLO 205 colon): > 100 µM
- TGI (HT29 colon): > 100 µM
- TGI (OVCAR-4 ovarian): > 88.7 µM
- TGI (SK-MEL-5 melanoma): > 100 µM
- TGI (SNB-78 CNS): > 100 µM
- TGI (T-47D breast): > 100 µM
- TGI (SK-MEL-28 melanoma): > 100 µM
- TGI (PC-3 prostate): > 100 µM
- TGI (HOP-62 NSCLC): 62.4 µM
- TGI (OVCAR-8 ovarian): > 100 µM
- TGI (OVCAR-3 ovarian): > 100 µM
- TGI (CAKI-1 renal): > 100 µM
- TGI (IGROV1 ovarian): > 100 µM
- TGI (HOP-18 NSCLC): > 100 µM
- TGI (OVCAR-5 ovarian): > 100 µM
- TGI (HOP-92 NSCLC): > 100 µM
- TGI (NCI/ADR-RES ovarian): > 100 µM
- TGI (MOLT-4 leukemia): > 100 µM
- TGI (XF 498 CNS): > 100 µM
- TGI (NCI-H23 lung): > 100 µM
- TGI (U251 CNS): > 100 µM
- TGI (UACC-62 melanoma): > 100 µM
- TGI (A549 NSCLC): > 100 µM
- TGI (MDA-MB-231 breast): > 100 µM
- TGI (UO-31 renal): > 100 µM
- TGI (SNB-75 CNS): 68.4 µM
- TGI (DMS 273 small cell lung): > 100 µM
- TGI (DLD-1 colon): > 100 µM
- TGI (BT-549 breast): > 100 µM
- TGI (SF-295 CNS): > 100 µM
- TGI (RXF 393 renal): 98.6 µM
- TGI (SNB-19 CNS): > 100 µM
- TGI (M19-MEL melanoma): > 100 µM
- TGI (LXFL 529 NSCLC): > 100 µM
- TGI (786-0 renal): > 100 µM
- TGI (CCRF-CEM leukemia): > 100 µM
- TGI (HL-60(TB) leukemia): > 100 µM
- TGI (MALME-3M melanoma): > 100 µM
- TGI (NCI-H226 lung): > 100 µM
- TGI (MCF7 breast): > 100 µM
- TGI (HS 578T breast): > 100 µM
- TGI (DMS 114 small cell lung): > 100 µM
- TGI (HCT-116 colon): > 100 µM
- TGI (MDA-MB-435): > 100 µM
- TGI (EKVX NSCLC): > 100 µM
- TGI (HCC-2998 colon): > 100 µM
- TGI (M14 melanoma): > 100 µM
- TGI (ACHN renal): > 100 µM
- TGI (SK-OV-3 ovarian): > 100 µM
- TGI (SF-268 CNS): > 100 µM
- TGI (KM12 colon): > 100 µM
- TGI (SK-MEL-2 melanoma): > 100 µM
- TGI (SF-539 CNS): > 100 µM
- TGI (TK-10 renal): > 100 µM
- TGI (SW-620 colon): > 100 µM
- TGI (SN12C renal): > 100 µM
- TGI (NCI-H460 lung): > 100 µM
- TGI (NCI-H522 lung): > 100 µM
- TGI (SR leukemia): > 100 µM
